From patent US12606548B2, “Fungicidal oxadiazoles” (FMC CORPORATION, priority 2019, dated 2026)
Marks after values point to notes of the source that are not given here.

Columns and labels:
Assay type in all cases: in vivo
Phakopsora pachyrhizi = test: Test A: test suspension sprayed on soybean seedlings, inoculated next day with Phakopsora pachyrhizi (Asian soybean rust), visual disease rating; conditions: for Test A rating (% disease control): relative to the controls
Outline: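 Compounds first dissolved in acetone (3% of final volume), then suspended in acetone/water 50/50 with 250 ppm PEG400 and sprayed to run-off on soybean seedlings at the stated ppm rate. Inoculated next day with P. pachyrhizi spores; 24 h saturated atmosphere at 22 °C, then 8 days in growth chamber at 22 °C before visual disease rating.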

Zymoseptoria tritici = test: Test B: test suspension sprayed on wheat seedlings, inoculated next day with Zymoseptoria tritici (wheat leaf blotch), visual disease rating; conditions: for Test B rating (% disease control): relative to the controls
Text: General protocol for preparing test suspensions for Tests A-C: the test compounds were first dissolved in acetone in an amount equal to 3% of the final volume and then suspended at the desired concentration (in ppm) in acetone and purified water (50/50 mix by volume) containing 250 ppm of the surfactant PEG400 (polyhydric alcohol esters). The resulting test suspensions were then used in Tests A-C.
The test suspension was sprayed to the point of run-off on wheat seedlings. The following day the seedlings were inoculated with a spore suspension of Zymoseptoria tritici (the causal agent of wheat leaf blotch) and incubated in a saturated atmosphere at 24° C., for 48 h, and then moved to a growth chamber at 20° C., for 17 days, after which time visual disease ratings were made.
Results for Tests A-C are given in Table A. In the Table, a rating of 100 indicates 100% disease control and a rating of 0 indicates no disease control (relative to the controls). A dash (-) indicates the compound was not tested. The test suspensions were sprayed at the concentration listed in the column “Rate in ppm”, unless otherwise indicated. An asterisk “*” next to the rating indicates a 250 ppm test suspension was used, a double asterisk “**” next to the rating indicates a 100 ppm test suspension was used, and a triple asterisk “***” next to the rating indicates a 50 ppm test suspension was used.

[1] = tested on: Puccinia recondita f. sp. tritici; test: Test C: test suspension sprayed on wheat seedlings, inoculated next day with Puccinia recondita f. sp. tritici (wheat leaf rust), visual disease rating; conditions: for Test C rating (% disease control): relative to the controls
Outline: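 Compounds dissolved in acetone (3% of final volume), suspended in acetone/water 50/50 with 250 ppm PEG400 and sprayed to run-off on wheat seedlings at the listed ppm rate. Inoculated next day with P. recondita spores; 24 h saturated atmosphere at 20° C, then 6 days growth chamber at 20° C; visual disease rating.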

Compound	Test A rating (% disease control) (Phakopsora pachyrhizi; Rate 10 ppm test suspension) [%]	Test B rating (% disease control) (Zymoseptoria tritici; 250 ppm test suspension)	Test C rating (% disease control) ([1]; Rate 10 ppm test suspension) [%]	further results
O=C(NCCn1cccn1)c1csc(COc2ccc(-c3noc(C(F)(F)F)n3)cc2)n1 [compound 471]	77	15* %	80	–
O=C(NCCC(F)(F)F)c1csc(COc2ccc(-c3noc(C(F)(F)F)n3)cc2)n1 [compound 472]	77	22* %	0	–
N#CCNC(=O)c1csc(COc2ccc(-c3noc(C(F)(F)F)n3)cc2)n1 [compound 473]	94	28* %	89	–
O=C(c1csc(Cc2ccc(-c3noc(C(F)(F)F)n3)cc2)n1)N1CCOCC1 [compound 487]	100	–	100	Test B rating (% disease control) (Zymoseptoria tritici; 100 ppm test suspension (double asterisk)): 98** %
CCNC(=O)c1csc(Cc2ccc(-c3noc(C(F)(F)F)n3)cc2)n1 [compound 488]	100	99* %	100	–
COCC(COC)NC(=O)c1csc(Cc2ccc(-c3noc(C(F)(F)F)n3)cc2)n1 [compound 489]	100	92* %	99	–
CON=C(CCl)COC(=O)c1cnn(Cc2ccc(-c3noc(C(F)(F)F)n3)cc2)c1 [compound 494]	100	47* %	0	–
O=C(CCl)COC(=O)c1cnn(Cc2ccc(-c3noc(C(F)(F)F)n3)cc2)c1 [compound 495]	100	43* %	0	–
CC1(C)OCC(COC(=O)c2cnn(Cc3ccc(-c4noc(C(F)(F)F)n4)cc3)c2)O1 (stereo not drawn) [compound 496]	100	48* %	0	–
CN(C)C(=O)C1=NOC(COc2cccc(-c3noc(C(F)(F)F)n3)c2)C1 (stereo not drawn) [compound 502]	–	62%	–	Test A rating (% disease control) (Phakopsora pachyrhizi; Rate 250 ppm test suspension): 100%; Test C rating (% disease control) ([1]; Rate 250 ppm test suspension): 100%
ethyl 1-[[4-[5-(trifluoromethyl)-1,2,4-oxadiazol-3-yl]phenyl]methyl]-1H-pyrazole-4-carboxylate [Compound 83]	–	–	–	Test A disease control rating (Phakopsora pachyrhizi; 270 ppm test suspension): 100%; Test B disease control rating (Zymoseptoria tritici; 270 ppm test suspension): 5%; Test C disease control rating ([1]; 270 ppm test suspension): 100%
methyl 1,2-dihydro-2-oxo-1-[[4-[5-(trifluoromethyl)-1,2,4-oxadiazol-3-yl]phenyl]methyl]-4-pyridinecarboxylate [Compound 24]	–	–	–	Test A disease control rating (Phakopsora pachyrhizi; 270 ppm test suspension): 100%; Test B disease control rating (Zymoseptoria tritici; 270 ppm test suspension): 18%; Test C disease control rating ([1]; 270 ppm test suspension): 100%
methyl 2-[[4-[5-(trifluoromethyl)-1,2,4-oxadiazol-3-yl]-phenoxy]methyl]oxazole-4-carboxylate [Compound 403]	–	–	–	Test A disease control rating (Phakopsora pachyrhizi; 250 ppm test suspension): 100%; Test B disease control rating (Zymoseptoria tritici; 250 ppm test suspension): 93%; Test C disease control rating ([1]; 250 ppm test suspension): 100%
methyl 4,5-dihydro-2-[[4-[5-(trifluoromethyl)-1,2,4-oxadiazol-3-yl]phenyl]methyl]-4-oxazolecarboxylate [Compound 74]	–	–	–	Test A disease control rating (Phakopsora pachyrhizi; 250 ppm test suspension): 100%; Test B disease control rating (Zymoseptoria tritici; 250 ppm test suspension): 0%; Test C disease control rating ([1]; 250 ppm test suspension): 96%
α-(phenylamino)-4-[5-(trifluoromethyl)-1,2,4-oxadiazol-3-yl]benzeneacetonitrile [Compound 13]	–	–	–	Test A disease control rating (Phakopsora pachyrhizi; 250 ppm test suspension): 100%; Test B disease control rating (Zymoseptoria tritici; 250 ppm test suspension): 86%; Test C disease control rating ([1]; 250 ppm test suspension): 100%
